In the experiment the target is T1, Ubiquitin carboxyl-terminal hydrolase BAP1 (Homo sapiens, UniProt Q92560).
T1 sequence (Q92560 whole entry): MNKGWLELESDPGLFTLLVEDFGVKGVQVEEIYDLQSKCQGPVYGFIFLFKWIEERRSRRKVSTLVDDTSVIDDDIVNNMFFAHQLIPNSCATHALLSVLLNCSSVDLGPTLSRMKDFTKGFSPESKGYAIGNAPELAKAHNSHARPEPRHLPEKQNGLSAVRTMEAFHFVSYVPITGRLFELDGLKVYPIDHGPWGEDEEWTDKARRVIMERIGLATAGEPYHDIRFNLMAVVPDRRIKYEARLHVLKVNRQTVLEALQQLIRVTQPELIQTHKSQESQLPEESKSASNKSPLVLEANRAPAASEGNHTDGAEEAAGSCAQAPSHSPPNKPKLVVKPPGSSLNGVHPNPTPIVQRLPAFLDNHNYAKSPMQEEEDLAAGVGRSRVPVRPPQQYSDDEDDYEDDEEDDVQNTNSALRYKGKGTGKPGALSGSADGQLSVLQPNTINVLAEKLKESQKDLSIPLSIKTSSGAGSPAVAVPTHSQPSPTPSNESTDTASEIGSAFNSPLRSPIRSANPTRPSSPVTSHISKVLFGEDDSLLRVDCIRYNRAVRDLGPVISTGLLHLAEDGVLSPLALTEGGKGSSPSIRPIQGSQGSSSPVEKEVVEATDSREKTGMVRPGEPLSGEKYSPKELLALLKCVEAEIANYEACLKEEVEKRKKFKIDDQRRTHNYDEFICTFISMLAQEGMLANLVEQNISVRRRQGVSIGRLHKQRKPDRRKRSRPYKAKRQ
The experiment can be described thus: BAP1 deubiquitinase inhibitors, dose response, biochemical (AID 714).

Usually IC50 stands for the midpoint of a concentration-inhibition curve. The low end stands for greater potency in that assay, the high end for weaker potency in that assay.

The compound `CCCOC(=O)C1=C(C)N=C2CCCC(=O)C2C1c1cccc(OC)c1OC` (configuration not stated) [4-(2,3-dimethoxyphenyl)-2-methyl-5-oxo-4,6,7,8-tetrahydro-1H-quinoline-3-carboxylic acid propyl ester] had an IC50 of 33.9 µM. That is a double-digit micromolar value. On to `CC(=O)C1=C(C)N=C(SCC(=O)c2ccc(Cl)c(Cl)c2)C(C#N)C1c1ccco1` (configuration not stated) [5-acetyl-2-[2-(3,4-dichlorophenyl)-2-oxoethyl]sulfanyl-4-(furan-2-yl)-6-methyl-1,4-dihydropyridine-3-carbonitrile], for which the IC50 was > 50 µM.
